Test results as given in US20230139328A1, “DOSAGE FORMS FOR IMPROVING ORGAN TRANSPLANTATION, GRAFT VERSUS HOST DISEASE AND STEM CELLS TRANSPLANTS” (Aphios Corporation, priority 2020, published 2023).

Tested on: neutrophil migration across HUVEC
Experiment: Neutrophil transendothelial migration (TEM) restoration studies with PKC inhibitors in HUVEC
Type: cell-based, human
Conditions: for restoration of PMN TEM in response to LTB4 after PKC activator treatment: PKC inhibitor 30 min (1, 10, 100 nM) then 100 nM Bryostatin-1 1 h
Description: HUVEC were pretreated with G0-6983, a PKC inhibitor with dose dependent specificities for classical vs. novel PKC isoforms for 30 minutes prior to addition of Bryostatin-1 (100 nM) to block neutrophil migration. […] Neutrophil migration towards 100 nM LTB4 was initiated by adding LTB4 to the lower well.
Neutrophil Transendothelial Migration (TEM) Restoration Studies: HUVECs were pretreated with Go-6983 (1, 10, 100 nM), or Go-6976 (1, 10,100 nM) for 30 minutes, then spiked with 100 nM Bryostatin-1 for 1 hour. HUVECs previously nucleofected with PKC-δ, -ε, or control siRNA were just treated in Bryostatin-1 for 1 hour. HUVECs were washed three times and placed in a new plate containing either 500 IL 100 nM LTB4, or HBSS alone for control. Neutrophils were allowed to migrate for 3 h at 37° C. Migration was stopped by removing the inserts and migration was measured using the MPO assay.
Myeloperoxidase Assay: Neutrophil migration was measured using myeloperoxidase (MPO) analysis. Cell culture inserts were first removed, and plates were spun at 1,500 RPM for 5 min. The supernatant was removed, and MPO activity was measured using TMB/peroxide as chromogen. The reaction was stopped with sulfuric acid and absorbance was read at 450 nm using a microplate reader. All experiments were performed n=6. Data was expressed as “% neutrophil migration”, which allowed cumulative statistical analysis to be done and account for unpreventable batch-to-batch variations.

SMILES	restoration of PMN TEM in response to LTB4 after PKC activator treatment	effect of inhibitor pretreatment on Bryostatin-1 mediated reduction in migration towards LTB4, 1 nM (1 nM inhibitor 30 min before 100 nM Bryostatin-1)	effect of inhibitor pretreatment on Bryostatin-1 mediated reduction in migration towards LTB4, 10 or 100 nM (10 or 100 nM inhibitor 30 min before 100 nM Bryostatin-1)	restoration of PMN TEM in response to LTB4 after PKC activator treatment (listed as G0-6983)
CC(=O)c1c(O)c(C)c(O)c(Cc2c(O)c3c(c(C(=O)/C=C/c4ccccc4)c2O)OC(C)(C)C=C3)c1O [Rottlerin]	did not restore PMN TEM	–	–	–
CN[C@@H]1C[C@H]2O[C@@](C)([C@@H]1OC)n1c3ccccc3c3c4c(c5c6ccccc6n2c5c31)C(=O)NC4 [staurosporine]	did not restore PMN TEM	–	–	–
CN(C)CCCn1cc(C2=C(c3c[nH]c4ccccc34)C(=O)NC2=O)c2ccccc21 [GF10923X]	did not restore PMN TEM	–	–	–
COc1ccc2c(c1)c(C1=C(c3c[nH]c4ccccc34)C(=O)NC1=O)cn2CCCN(C)C [Go-6983]	dose dependently restored neutrophil migration	but not by 1 nM G06983	prevented	dose dependently reversed
Cn1c2ccccc2c2c3c(c4c5ccccc5n(CCC#N)c4c21)CNC3=O [GO-6976]	did not restore PMN TEM	–	–	–
